This is an account of results in ChEMBL document CHEMBL1150104, “Isolation and structure identification of an active DNA strand-scission agent, (+)-3,4-di-hydroxy-8,9-methylenedioxypterocarpan” (1995).

≈ marks a conversion by molar mass, not a printed value. Calls of active or inactive are those of the source. No cut-off for these calls is given here.

The test system of assay [1] is Nucleic Acid. The experiment in a line: Induction of DNA strand scission activity in Escherichia coli pBR322 at 25 ug/mL by electrophoresis. The format is nucleic-acid assay.
A further assay deals with KB. The experiment in a line: Cytotoxicity against human KB cells. The format is functional. The following applies: read-out: ED50 (the source's name).
The test system of assay [2] is Nucleic Acid. As to the kind of experiment: Induction of DNA strand scission activity in Escherichia coli pBR322 at 0.1 ug/mL by electrophoresis. The format is nucleic-acid assay.

With `Oc1ccc2c(c1O)OC[C@@H]1c3cc4c(cc3O[C@H]21)OCO4`, the outcome in the assay with Nucleic Acid [1] was Active. In addition, in the assay with KB, the EC50 was determined as 0.9 µg/mL (≈ 3 µM).

Turning to `COc1ccc2c(c1O)OC[C@@H]1c3cc4c(cc3O[C@H]21)OCO4`, in the assay on Nucleic Acid [1], the result was inactive. Further, the EC50 in the assay on KB was 4 µg/mL (≈ 12.7 µM).

Consider `Oc1ccc2c(c1)OC[C@@H]1c3cc4c(cc3O[C@H]21)OCO4` [(+)-MAACKIAIN], for which, in the assay on Nucleic Acid [1], the result was inactive. Besides, the EC50 in the assay on KB worked out at 5.6 µg/mL (≈ 19.7 µM).

Consider BLEOMYCIN SULFATE, for which the outcome with Nucleic Acid [2] was Active.
